Results published in ChEMBL document CHEMBL1201862, “PubChem BioAssay data set” (2004).
Activity calls are given as the source filed them.

Assays:
[1] = Luminescence Cell-Based Dose Response HTS to Identify Activators of Luciferase Translation or Activity in H4 […] Cells. [Related pubchem assays: 1829 (Project Summary), 1814 (Primary HTS)]; assay type: functional
[2] = system: H4; assay: Luminescence Cell-Based Dose Response HTS to Identify Activators of 5'UTR Stem-Loop Driven Prion Protein mRNA Translation in H4 Neuroglioblastoma Cells. [Related pubchem assays: 1829 (Project Summary), 1814 (Primary HTS)]; assay type: functional; conditions: Homo sapiens
[3] = molecular target: Cytochrome P450 2D6 (Homo sapiens, UniProt P10635);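 also: CYP2D6 member of a cytochrome P450 panel assay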
Cytochrome P450 2D6, sequence (P10635 whole entry): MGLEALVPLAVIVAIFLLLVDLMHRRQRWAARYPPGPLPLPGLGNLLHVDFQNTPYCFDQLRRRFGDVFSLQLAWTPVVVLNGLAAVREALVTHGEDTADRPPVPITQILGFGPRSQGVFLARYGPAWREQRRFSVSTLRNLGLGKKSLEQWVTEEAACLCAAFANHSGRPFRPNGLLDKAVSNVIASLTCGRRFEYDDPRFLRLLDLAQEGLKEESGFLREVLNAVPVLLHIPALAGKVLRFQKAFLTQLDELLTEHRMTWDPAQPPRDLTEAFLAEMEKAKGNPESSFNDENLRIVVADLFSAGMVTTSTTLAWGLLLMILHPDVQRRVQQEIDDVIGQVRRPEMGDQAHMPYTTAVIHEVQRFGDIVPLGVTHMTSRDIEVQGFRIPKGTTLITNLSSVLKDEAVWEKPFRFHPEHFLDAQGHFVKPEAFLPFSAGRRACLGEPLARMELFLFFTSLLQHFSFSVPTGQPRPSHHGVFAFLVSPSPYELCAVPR

[4] = molecular target: Cytochrome P450 2C9 (Homo sapiens, UniProt P11712)
Cytochrome P450 2C9, sequence (P11712 whole entry): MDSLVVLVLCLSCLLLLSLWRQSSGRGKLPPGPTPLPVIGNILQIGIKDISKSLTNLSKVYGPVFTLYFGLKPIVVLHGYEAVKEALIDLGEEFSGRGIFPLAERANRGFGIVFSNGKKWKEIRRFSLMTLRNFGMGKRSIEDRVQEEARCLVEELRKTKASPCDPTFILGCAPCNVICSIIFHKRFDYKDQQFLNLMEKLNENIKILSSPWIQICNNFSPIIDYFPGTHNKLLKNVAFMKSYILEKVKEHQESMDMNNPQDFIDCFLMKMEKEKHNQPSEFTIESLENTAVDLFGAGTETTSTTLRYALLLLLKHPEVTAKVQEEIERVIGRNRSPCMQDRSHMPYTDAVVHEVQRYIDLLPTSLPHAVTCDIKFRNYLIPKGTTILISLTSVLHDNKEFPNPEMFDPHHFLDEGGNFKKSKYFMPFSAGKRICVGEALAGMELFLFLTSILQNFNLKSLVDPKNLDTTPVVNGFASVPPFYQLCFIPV

[5] = molecular target: T1, Cytochrome P450 1A2 (Homo sapiens, UniProt P05177);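 also: PubChem cytochrome P450 panel assay, CYP1A2 panel member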
T1 sequence (P05177 whole entry): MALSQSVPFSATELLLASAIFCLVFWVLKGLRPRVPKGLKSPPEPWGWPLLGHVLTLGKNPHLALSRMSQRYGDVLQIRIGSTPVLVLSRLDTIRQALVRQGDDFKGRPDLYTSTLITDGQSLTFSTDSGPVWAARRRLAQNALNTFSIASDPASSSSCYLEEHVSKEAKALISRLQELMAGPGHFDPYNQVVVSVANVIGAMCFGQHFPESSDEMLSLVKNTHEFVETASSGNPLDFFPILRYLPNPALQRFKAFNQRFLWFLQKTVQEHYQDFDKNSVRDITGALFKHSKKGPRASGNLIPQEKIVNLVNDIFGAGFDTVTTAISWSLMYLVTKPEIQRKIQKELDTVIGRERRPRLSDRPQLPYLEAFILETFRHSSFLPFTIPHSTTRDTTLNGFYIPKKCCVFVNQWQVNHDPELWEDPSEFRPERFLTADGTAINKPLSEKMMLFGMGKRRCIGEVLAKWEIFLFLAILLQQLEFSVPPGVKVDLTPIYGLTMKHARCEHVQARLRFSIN

[6] = Luminescence Cell-Based Dose Confirmation HTS to Identify Activators of 5'UTR Stem-Loop Driven Alpha-Synuclein mRNA Translation in H4 Neuroglioblastoma Cells. [Related pubchem assays: 1829 (Project Summary), 1814 (Primary HTS)]; assay type: functional
[7] = molecular target: T2, Rac GTPase-activating protein 1 (Homo sapiens, UniProt Q9H0H5); assay: blockers of MgcRacGAP-driven Rac1 GTP hydrolysis – biochemical, ADP Hunter fluorescence, primary and confirmatory, confirmation (AID 624330); assay type: functional
T2 sequence (Q9H0H5 whole entry): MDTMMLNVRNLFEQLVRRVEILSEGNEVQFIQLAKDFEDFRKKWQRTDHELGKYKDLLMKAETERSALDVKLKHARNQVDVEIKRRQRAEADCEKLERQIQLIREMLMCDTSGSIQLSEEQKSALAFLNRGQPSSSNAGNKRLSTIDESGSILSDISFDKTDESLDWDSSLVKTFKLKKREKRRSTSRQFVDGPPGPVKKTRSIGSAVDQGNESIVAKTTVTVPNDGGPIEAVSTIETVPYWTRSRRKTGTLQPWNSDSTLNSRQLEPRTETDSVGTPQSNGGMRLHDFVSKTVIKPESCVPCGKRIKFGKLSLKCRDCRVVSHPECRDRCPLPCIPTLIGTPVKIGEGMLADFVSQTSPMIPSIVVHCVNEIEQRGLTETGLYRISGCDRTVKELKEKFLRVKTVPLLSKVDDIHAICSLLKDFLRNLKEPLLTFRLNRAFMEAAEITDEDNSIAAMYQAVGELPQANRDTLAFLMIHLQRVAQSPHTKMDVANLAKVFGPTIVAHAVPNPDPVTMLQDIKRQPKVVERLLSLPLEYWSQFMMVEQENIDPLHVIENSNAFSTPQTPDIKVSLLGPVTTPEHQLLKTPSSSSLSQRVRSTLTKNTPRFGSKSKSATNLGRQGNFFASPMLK

[8] = molecular target: Cytochrome P450 3A4 (Homo sapiens, UniProt P08684);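 also: CYP3A4 tested as one member of a cytochrome P450 panel screen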
Cytochrome P450 3A4, sequence (P08684 whole entry): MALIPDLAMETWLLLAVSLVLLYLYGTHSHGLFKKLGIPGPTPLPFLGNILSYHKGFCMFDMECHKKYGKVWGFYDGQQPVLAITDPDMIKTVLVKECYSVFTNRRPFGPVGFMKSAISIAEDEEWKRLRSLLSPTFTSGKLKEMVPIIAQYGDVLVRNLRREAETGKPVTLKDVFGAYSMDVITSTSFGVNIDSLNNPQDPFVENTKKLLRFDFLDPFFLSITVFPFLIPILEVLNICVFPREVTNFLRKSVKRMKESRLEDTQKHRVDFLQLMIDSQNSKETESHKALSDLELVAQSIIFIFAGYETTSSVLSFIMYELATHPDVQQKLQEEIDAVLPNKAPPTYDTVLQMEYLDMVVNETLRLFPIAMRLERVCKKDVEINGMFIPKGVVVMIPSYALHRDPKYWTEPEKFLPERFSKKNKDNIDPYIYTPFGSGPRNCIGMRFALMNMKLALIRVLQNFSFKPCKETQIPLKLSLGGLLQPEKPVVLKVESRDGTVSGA

[9] = molecular target: Cytochrome P450 2C19 (Homo sapiens, UniProt P33261); assay: Cytochrome panel assay with activity outcomes. Panel member name: p450-cyp2c19 Compounds with AC50 equal or less than 10 uM are considered active; assay type: functional; conditions: read-out: AC50
Cytochrome P450 2C19, sequence (P33261 whole entry): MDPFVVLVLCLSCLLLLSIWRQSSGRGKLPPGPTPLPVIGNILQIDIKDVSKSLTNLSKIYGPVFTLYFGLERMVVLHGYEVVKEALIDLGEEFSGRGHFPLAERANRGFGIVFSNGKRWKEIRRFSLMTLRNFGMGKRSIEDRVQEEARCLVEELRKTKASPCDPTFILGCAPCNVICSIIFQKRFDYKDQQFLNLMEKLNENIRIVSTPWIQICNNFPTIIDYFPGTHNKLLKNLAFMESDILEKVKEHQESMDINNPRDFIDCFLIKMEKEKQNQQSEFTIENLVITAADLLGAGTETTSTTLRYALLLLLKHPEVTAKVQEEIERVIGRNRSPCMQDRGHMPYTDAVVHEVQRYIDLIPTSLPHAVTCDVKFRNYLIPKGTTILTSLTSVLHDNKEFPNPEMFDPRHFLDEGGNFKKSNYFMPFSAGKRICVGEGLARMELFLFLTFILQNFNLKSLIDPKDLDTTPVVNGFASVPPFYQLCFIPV

[10] = Trypanosoma cruzi growth suppression in host cells – NIH3T3 host cells, beta-gal luminescence, confirmation (AID 2044); assay type: functional, cell-based;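 also: intracellular parasites grown in NIH/3T3 mouse fibroblasts as host cells; luminescent beta-galactosidase reporter signal from transgenic T. cruzi replicating inside host cells; inhibitors lower the luminescence signal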
[11] = NIH3T3 cell viability loss – ATP luminescence, mouse fibroblasts, counter-screen, dose response (AID 2010); assay type: functional, cell-based;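 also: cells exposed to compound for about 90 hours before reading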
[12] = Luminescence Cell-Based Dose Retest to Confirm Inhibitors of Cancer Stem Cells. [Related pubchem assays (depositor defined):AID2717, AID2721]; assay type: functional; conditions: Homo sapiens

Oc1c2c(nc3cc(-c4ccccc4Cl)nn13)CCS2
EC50 [1]: 2.34 µM (active)
EC50 [2]: 21.7 µM (active)

O=C(CCCCn1c(=S)[nH]c2ccsc2c1=O)NCc1ccco1
AC50 [3]: 39.8 µM (inconclusive)

Cc1nc(SCC(=O)c2ccc(F)cc2)c([N+](=O)[O-])[nH]1
AC50 [4]: 20 µM (inconclusive)

Cc1nn(-c2ccccc2)c(Cl)c1C(=O)Nc1c(C)n(C)n(-c2ccccc2)c1=O
AC50 [5]: 5.01 µM (inconclusive)
AC50 [4]: 20 µM (inconclusive)

O=C(CCc1ccccc1)Nc1ccc(Cl)cn1
EC50 [6]: > 120 µM (not active)
EC50 [1]: 1.18 µM (active)
EC50 [2]: 19.8 µM (active)

O=C(O)C1CSC(c2ccco2)N1 (centres undefined)
IC50 [7]: 70.6 µM (active)

CCCCOc1ccc(-c2nnn(CC(=O)NCc3ccco3)n2)cc1
EC50 [6]: > 120 µM (not active)
EC50 [1]: 24.3 µM (active)
EC50 [2]: 10 µM (active)

COc1ccc(C2=C/C(=C\c3ccccc3OC(C)=O)C(=O)O2)cc1
EC50 [6]: 18.6 µM (active)
EC50 [1]: 90 µM (active)
EC50 [2]: 48.4 µM (active)

COc1ccc2c(c1OC)C(=O)N1c3ccccc3SC21 (centres undefined)
EC50 [1]: 0.124 µM (active)
EC50 [2]: 0.179 µM (active)

CC(C)NC(=O)CSc1nnc(C2CC2)n1-c1ccccc1
AC50 [8]: 25.1 µM (inconclusive)
AC50 [4]: 31.6 µM (inconclusive)

C=CCNCC(O)COc1ccc(C(C)=O)cc1OC (centres undefined)
IC50 [7]: 131 µM (active)

CC1CCCCC12NC(=O)N(CC(=O)NC(=O)Nc1ccc3c(c1)OCCO3)C2=O (centres undefined)
EC50 [6]: 0.111 µM (active)
EC50 [1]: 0.483 µM (active)
EC50 [2]: 0.117 µM (active)

O=C(c1cc(-c2ccc3c(c2)OCO3)on1)N1CCN(c2ccccc2)CC1
EC50 [6]: 0.793 µM (active)
EC50 [1]: 0.817 µM (active)
EC50 [2]: 4.67 µM (active)

CCCCNc1ncnc2c1cnn2-c1ccccc1
EC50 [2]: 27.1 µM (active)

S=C(NCCN1CCOCC1)Nc1ccc(-c2nc3ccccc3[nH]2)cc1
EC50 [6]: 16.3 µM (active)
EC50 [1]: 10.7 µM (active)
EC50 [2]: 16.5 µM (active)

CC1CCc2c(nc3ncnn3c2NCCc2ccccc2F)C1 (centres undefined)
EC50 [6]: > 120 µM (not active)
EC50 [1]: > 120 µM (not active)
EC50 [2]: > 120 µM (not active)

O=C(O)c1nnsc1-c1ccc(-c2snnc2C(=O)O)cc1
AC50 [4]: 7.94 µM (inconclusive)

COc1cccc2[nH]c(C(=O)NN)c(N)c12
IC50 [7]: 99.4 µM (active)

c1nc(NC2CC2)c2cc(-c3ccoc3)ccc2n1
AC50 [9]: 20 µM (inconclusive)
AC50 [3]: 39.8 µM (inconclusive)
AC50 [8]: 5.01 µM (inconclusive)

O=C(NC(=S)Nc1ccc(O)cc1)C1CCCC1
IC50 [7]: 29.6 µM (active)

COc1ccccc1CNc1cc(-c2c(C)noc2C)ncn1
AC50 [9]: 25.1 µM (inconclusive)
AC50 [3]: 25.1 µM (inconclusive)
AC50 [8]: 39.8 µM (inconclusive)

COC(=O)c1ccc(NC(=S)N2CCN(Cc3cccc(C)c3)CC2)cc1
AC50 [3]: 35.5 µM (inconclusive)

CCn1c(=N)n(CC(=O)C23CC4CC(CC(C4)C2)C3)c2ccccc21
EC50 [10]: 0.223 µM (active)
EC50 [11]: > 60 µM (not active)

Clc1cccc(Cl)c1/C=C/c1cc[nH]n1
EC50 [6]: > 120 µM (not active)
EC50 [1]: 41.2 µM (active)
EC50 [2]: 27 µM (active)

O=C(NC(=S)Nc1cccc(Cl)c1N1CCCCC1)c1cccs1
AC50 [12]: 2.08 µM (active)

COC(=O)c1cc(Br)c(=O)n(CCN2CCCC2)c1
AC50 [9]: 39.8 µM (inconclusive)
AC50 [3]: 17.8 µM (inconclusive)
AC50 [5]: 12.6 µM (inconclusive)
AC50 [4]: 39.8 µM (inconclusive)

CCCOC(=O)c1c(NC(=O)/C=C/c2cnn(C)c2C)sc(C(=O)OCC)c1C
AC50 [9]: 10 µM (inconclusive)
AC50 [5]: 17.8 µM (inconclusive)
AC50 [8]: 15.8 µM (inconclusive)
AC50 [4]: 39.8 µM (inconclusive)

c1ccc(NC2=Nc3ccccc3CC2)cc1
EC50 [6]: 10.9 µM (active)
EC50 [1]: 21.1 µM (active)
EC50 [2]: > 120 µM (not active)

OCCNCCSc1nc(C2CCCCC2)n(-c2ccccc2Cl)n1
IC50 [7]: 120 µM (active)

O=C(NCCN1CCOCC1)c1ccc2ccccc2c1
AC50 [3]: 15.8 µM (inconclusive)
AC50 [5]: 31.6 µM (inconclusive)

CCN(CC)S(=O)(=O)c1ccc(C)c(NC(=O)CN2CCN(Cc3ccccc3)CC2)c1
IC50 [7]: 84.8 µM (active)

CC1Cc2ccccc2N1C(=O)CSc1nnnn1C(C)C (centres undefined)
AC50 [5]: 15.8 µM (inconclusive)
AC50 [8]: 15.8 µM (inconclusive)
AC50 [4]: 14.1 µM (inconclusive)

O=C(Nc1ccnc(-c2cccnc2)n1)c1ccccc1Cl
AC50 [9]: 14.1 µM (inconclusive)
AC50 [3]: 11.2 µM (inconclusive)

COC(=O)N1CCC[C@@]2(CCN(C(=O)Nc3cccc(F)c3)C2)C1
AC50 [5]: 15.8 µM (inconclusive)
AC50 [8]: 12.6 µM (inconclusive)
AC50 [4]: 39.8 µM (inconclusive)

Cc1ccc(-c2nc3ncccc3o2)cc1NC(=O)c1ccc([N+](=O)[O-])o1
EC50 [6]: > 120 µM (not active)
EC50 [1]: > 120 µM (not active)
EC50 [2]: > 120 µM (not active)

CC(=O)Oc1ccc(C#C/C=C2\c3ccccc3C(=O)N2c2ccccc2)cc1
AC50 [12]: 2.25 µM (active)

CCc1nnc(SCc2ccc(OC(C)C)cc2)n1N
AC50 [5]: 15.8 µM (inconclusive)
AC50 [8]: 14.1 µM (inconclusive)
AC50 [4]: 0.00562 µM (inconclusive)

COC(=O)C1=C(N)Oc2cc(C)n(CC3CCCO3)c(=O)c2C1c1ccccc1OC (centres undefined)
AC50 [9]: 22.4 µM (inconclusive)
AC50 [4]: 28.2 µM (inconclusive)

CCOC(=O)c1[nH]c(C(=O)O)c(CCN(CC)CC)c1C
AC50 [3]: 3.98 µM (inconclusive)
AC50 [5]: 39.8 µM (inconclusive)

CC1(C)CCC[C@]2(C)[C@H]3Cc4cc(O)ccc4O[C@]3(C)CC[C@@H]12
AC50 [12]: 4.75 µM (active)

Cc1ccc(C2CC(C(F)(F)F)n3nc(C(=O)NCCN4CCOCC4)cc3N2)cc1 (centres undefined)
AC50 [5]: 1 µM (inconclusive)
AC50 [4]: 12.6 µM (inconclusive)

COc1ccc(N2CCN(c3nc(Nc4ccc(F)cc4)nc(OC)n3)CC2)cc1
AC50 [5]: 3.16 µM (inconclusive)
AC50 [8]: 3.16 µM (inconclusive)
AC50 [4]: 3.55 µM (inconclusive)

N=C1c2ccccc2CN1NC(=O)c1ccc(F)cc1
AC50 [9]: 28.2 µM (inconclusive)
AC50 [4]: 17.8 µM (inconclusive)

Cn1c(=O)[nH]c(NCCc2ccc(O)cc2)c([N+](=O)[O-])c1=O
IC50 [7]: 219 µM (active)

COc1cc2c(cc1N)-c1ccc(N)cc1C2=O
IC50 [7]: 12.3 µM (active)

Cc1sc2ncnc(N/N=C/c3ccc(O)cc3)c2c1C
IC50 [7]: 37.6 µM (active)

O=C(O)c1cc(N/N=C/c2c(O)ccc3ccccc23)ccc1Cl
IC50 [7]: 35.7 µM (active)

CC(/C=N/NC(=O)Cc1cccs1)=C\c1ccco1
AC50 [3]: 14.1 µM (inconclusive)

CC/C(=N\O)c1ccc(O)c(OC)c1
IC50 [7]: 45.2 µM (active)

COc1cc(/C=N\N=C2/SC(CC(=O)O)C(=O)N2c2ccc(O)cc2)ccc1O (centres undefined)
IC50 [7]: 78.1 µM (active)

CN(C)S(=O)(=O)c1ccc2c(c1)/C(=C/c1cc3c([nH]1)CCCC3)C(=O)N2
AC50 [9]: 7.94 µM (inconclusive)
AC50 [3]: 31.6 µM (inconclusive)
AC50 [4]: 10 µM (inconclusive)

CC=C(/C(=C/C)c1ccc(O)cc1)c1ccc(O)cc1 [DIENESTROL]
AC50 [3]: 15.8 µM (inconclusive)
AC50 [5]: 15.8 µM (inconclusive)
